Measurements from ChEMBL document CHEMBL3632477 (2015).
Where a SMILES comes first, the peptide text is derived from it. Bridges are numbered along the chain shown (N, C = ends). [ ]: non-standard residue; d: D form. ξ: configuration not given here. Bip(2'-Et-4'-OMe) = CCc1cc(OC)ccc1-c1ccc(C[C@H](N)C(=O)O)cc1; αMePhe(2,6-F2) = C[C@](N)(Cc1c(F)cccc1F)C(=O)O; ξαMePhe(2,6-F2) = CC(N)(Cc1c(F)cccc1F)C(=O)O; Bip = N[C@@H](Cc1ccc(-c2ccccc2)cc1)C(=O)O; ξαMePhe(2-F) = CC(N)(Cc1ccccc1F)C(=O)O; hhPhe = N[C@@H](CCCc1ccccc1)C(=O)O; αMeF = C[C@](N)(Cc1ccccc1)C(=O)O; ξαMeF = CC(N)(Cc1ccccc1)C(=O)O; Pen = CC(C)(S)[C@H](N)C(=O)O; Aib = CC(C)(N)C(=O)O

biological target: Glucagon-like peptide 1 receptor (Homo sapiens, UniProt P43220); assay: Agonist activity at human GLP-1R expressed in CHO-K1 cells assessed as increase in cAMP level incubated for 30 mins; assay type: functional, cell-based
Sequence (P43220 whole entry): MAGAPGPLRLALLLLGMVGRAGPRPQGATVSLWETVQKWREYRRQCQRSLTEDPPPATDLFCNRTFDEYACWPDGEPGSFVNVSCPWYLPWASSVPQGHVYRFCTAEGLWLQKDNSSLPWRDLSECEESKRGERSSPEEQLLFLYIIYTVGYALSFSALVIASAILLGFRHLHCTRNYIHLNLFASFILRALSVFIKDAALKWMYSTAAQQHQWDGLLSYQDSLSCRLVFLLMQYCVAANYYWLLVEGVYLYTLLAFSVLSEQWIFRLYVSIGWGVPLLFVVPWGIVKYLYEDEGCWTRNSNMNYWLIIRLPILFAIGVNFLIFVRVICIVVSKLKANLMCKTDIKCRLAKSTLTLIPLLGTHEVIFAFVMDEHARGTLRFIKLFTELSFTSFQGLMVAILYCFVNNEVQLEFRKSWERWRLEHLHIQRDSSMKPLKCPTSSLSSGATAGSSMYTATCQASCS

`CCc1cc(OC)ccc1-c1ccc(C[C@H](NC(=O)[C@H](CC(=O)O)NC(=O)[C@H](CO)NC(=O)[C@@H](NC(=O)[C@](C)(Cc2ccccc2)NC(=O)[C@@H](NC(=O)CNC(=O)[C@H](CCC(=O)O)NC(=O)[C@@H]2CCCN2C(=O)[C@@H](N)Cc2cnc[nH]2)[C@@H](C)O)[C@@H](C)O)C(=O)N[C@@H](CCCc2ccccc2)C(=O)N[C@H]2CSSC[C@@H](C(=O)N[C@@H](CO)C(=O)O)NC(=O)[C@H](C)NC(=O)CNC(=O)CNC(=O)CNC(=O)[C@H](C)NC(=O)[C@H](C)NC(=O)[C@H](Cc3ccc(-c4ccccc4)cc3)NC(=O)CNC2=O)cc1` (H-HPEGT[αMeF]TSD[Bip(2'-Et-4'-OMe)][hhPhe]CG[Bip]AAGGGACS-OH; disulfide 12-21) was tested. Which EC50 did it give?
Its EC50 is 47 nM.

`CCc1cc(OC)ccc1-c1ccc(C[C@@H]2NC(=O)[C@H](CC(=O)O)NC(=O)[C@H](CO)NC(=O)[C@@H]3CSSC[C@@H](C(=O)O)NC(=O)[C@H](CSSC[C@H](NC(=O)CNC(=O)[C@H](CCC(=O)O)NC(=O)C(C)(C)NC(=O)[C@@H](N)Cc4cnc[nH]4)C(=O)NC(C)(Cc4c(F)cccc4F)C(=O)N3)NC(=O)[C@H](CC(C)C)NC(=O)[C@H](CCCc3ccccc3)NC2=O)cc1` (stereo partly specified) (H-H[Aib]EGC[ξαMePhe(2,6-F2)]CSD[Bip(2'-Et-4'-OMe)][hhPhe]LCC-OH; disulfide 5-13, 7-14) was tested. Which EC50 did it give?
Its EC50 is 430 nM.

With `CCc1cc(OC)ccc1-c1ccc(C[C@@H]2NC(=O)[C@H](CC(=O)O)NC(=O)[C@H](CO)NC(=O)[C@H]([C@@H](C)O)NC(=O)[C@](C)(Cc3c(F)cccc3F)NC(=O)[C@H]([C@@H](C)O)NC(=O)CNC(=O)[C@H](CCC(=O)O)NC(=O)[C@@H]3CCCN3C(=O)[C@H](Cc3cnc[nH]3)NC(=O)[C@H](CO)NC(=O)[C@H](C(C)(C)S)NC(=O)[C@H](C)NC(=O)CNC(=O)CNC(=O)CNC(=O)[C@H](C)NC(=O)[C@H](C)NC(=O)CNC(=O)CNC(=O)[C@H](C(C)(C)S)NC(=O)[C@H](CCCc3ccccc3)NC2=O)cc1` (cyclo(AAGGGA[Pen]SHPEGT[αMePhe(2,6-F2)]TSD[Bip(2'-Et-4'-OMe)][hhPhe][Pen]GG)) as the molecule, how does the EC50 read?
Its EC50 is 2000 nM.

With `CCc1cc(OC)ccc1-c1ccc(C[C@@H]2NC(=O)[C@H](CC(=O)O)NC(=O)[C@H](CO)NC(=O)[C@@H]3CSSC[C@@H](C(=O)O)NC(=O)[C@H](CSSC[C@H](NC(=O)CNC(=O)[C@H](CCC(=O)O)NC(=O)C(C)(C)NC(=O)[C@@H](N)Cc4cnc[nH]4)C(=O)NC(C)(Cc4ccccc4F)C(=O)N3)NC(=O)[C@H](CC(C)C)NC(=O)[C@H](CCCc3ccccc3)NC2=O)cc1` (stereo partly specified) (H-H[Aib]EGC[ξαMePhe(2-F)]CSD[Bip(2'-Et-4'-OMe)][hhPhe]LCC-OH; disulfide 5-13, 7-14) as the molecule, how does the EC50 read?
Its EC50 is 5000 nM.

How did the EC50 turn out when `CCc1cc(OC)ccc1-c1ccc(C[C@@H]2NC(=O)[C@H](CC(=O)O)NC(=O)[C@H](CO)NC(=O)[C@H]([C@@H](C)O)NC(=O)[C@](C)(Cc3ccccc3)NC(=O)[C@H]([C@@H](C)O)NC(=O)CNC(=O)[C@H](CCC(=O)O)NC(=O)[C@@H]3CCCN3C(=O)[C@H](Cc3cnc[nH]3)NC(=O)[C@H](CO)NC(=O)[C@@H]3CSSC[C@H](NC(=O)[C@H](CCCc4ccccc4)NC2=O)C(=O)NCC(=O)NCC(=O)N[C@@H](CC(C)C)C(=O)N[C@@H](CC(C)C)C(=O)N[C@@H](CC(C)C)C(=O)NCC(=O)N[C@@H](CC(C)C)C(=O)N[C@@H](CC(C)C)C(=O)N3)cc1` (cyclo(CGGLLLGLLCSHPEGT[αMeF]TSD[Bip(2'-Et-4'-OMe)][hhPhe]); disulfide 1-10) was run?
The EC50 was 2800 nM.

For `CCc1cc(OC)ccc1-c1ccc(C[C@H](NC(=O)[C@H](CC(=O)O)NC(=O)[C@H](CO)NC(=O)[C@@H](NC(=O)[C@](C)(Cc2ccccc2F)NC(=O)[C@H](CS)NC(=O)CNC(=O)[C@H](CCC(=O)O)NC(=O)C(C)(C)NC(=O)[C@@H](N)Cc2cnc[nH]2)[C@@H](C)O)C(=O)N[C@@H](CCCc2ccccc2)C(=O)N[C@H](CS)C(N)=O)cc1`, which EC50 is on record?
The EC50 was > 1000 nM.

How did the EC50 turn out when `CCc1cc(OC)ccc1-c1ccc(C[C@H](NC(=O)[C@H](CC(=O)O)NC(=O)[C@H](CO)NC(=O)[C@@H](NC(=O)[C@](C)(Cc2c(F)cccc2F)NC(=O)[C@@H](NC(=O)CNC(=O)[C@H](CCC(=O)O)NC(=O)[C@@H]2CCCN2C(=O)[C@@H](N)Cc2cnc[nH]2)[C@@H](C)O)[C@@H](C)O)C(=O)N[C@@H](CCCc2ccccc2)C(=O)N[C@H]2CSSC[C@@H](C(=O)N[C@@H](CO)C(=O)O)NC(=O)[C@H](C)NC(=O)CNC(=O)CNC(=O)CNC(=O)[C@H](C)NC(=O)[C@H](C)NC(=O)CNC(=O)CNC2=O)cc1` (H-HPEGT[αMePhe(2,6-F2)]TSD[Bip(2'-Et-4'-OMe)][hhPhe]CGGAAGGGACS-OH; disulfide 12-21) was run?
The EC50 was 0.85 nM.

With `CCc1cc(OC)ccc1-c1ccc(C[C@@H]2NC(=O)[C@H](CC(=O)O)NC(=O)[C@H](CO)NC(=O)[C@@H]3CSSC[C@@H](C(=O)O)NC(=O)[C@H](CSSC[C@H](NC(=O)CNC(=O)[C@H](CCC(=O)O)NC(=O)C(C)(C)NC(=O)[C@@H](N)Cc4cnc[nH]4)C(=O)NC(C)(Cc4ccccc4)C(=O)N3)NC(=O)[C@H](CC(C)C)NC(=O)[C@H](CCCc3ccccc3)NC2=O)cc1` (stereo partly specified) (H-H[Aib]EGC[ξαMeF]CSD[Bip(2'-Et-4'-OMe)][hhPhe]LCC-OH; disulfide 5-13, 7-14) as the molecule, how does the EC50 read?
Its EC50 is 1600 nM.

For `CCc1cc(OC)ccc1-c1ccc(C[C@H](NC(=O)[C@H](CC(=O)O)NC(=O)[C@H](CS)NC(=O)[C@@H](NC(=O)[C@](C)(Cc2ccccc2F)NC(=O)[C@@H](NC(=O)CNC(=O)[C@H](CCC(=O)O)NC(=O)C(C)(C)NC(=O)[C@@H](N)Cc2cnc[nH]2)[C@@H](C)O)[C@@H](C)O)C(=O)N[C@@H](CCCc2ccccc2)C(=O)N[C@H](CS)C(N)=O)cc1`, which EC50 is on record?
Its EC50 is 1150 nM.

For `CCc1cc(OC)ccc1-c1ccc(C[C@H](NC(=O)[C@H](CC(=O)O)NC(=O)[C@H](CO)NC(=O)[C@@H](NC(=O)[C@](C)(Cc2ccccc2)NC(=O)[C@@H](NC(=O)CNC(=O)[C@H](CCC(=O)O)NC(=O)[C@@H]2CCCN2C(=O)[C@@H](N)Cc2cnc[nH]2)[C@@H](C)O)[C@@H](C)O)C(=O)N[C@@H](CCCc2ccccc2)C(=O)N[C@H]2CSSC[C@@H](C(=O)N[C@@H](CO)C(=O)O)NC(=O)[C@H](CC(C)C)NC(=O)[C@H](CC(C)C)NC(=O)CNC(=O)[C@H](CC(C)C)NC(=O)[C@H](CC(C)C)NC(=O)[C@H](CC(C)C)NC(=O)CNC(=O)CNC2=O)cc1` (H-HPEGT[αMeF]TSD[Bip(2'-Et-4'-OMe)][hhPhe]CGGLLLGLLCS-OH; disulfide 12-21), which EC50 is on record?
Its EC50 is 130 nM.

Which EC50 does the source give for `CCc1cc(OC)ccc1-c1ccc(C[C@@H]2NC(=O)[C@H](CC(=O)O)NC(=O)[C@H](CO)NC(=O)[C@H]([C@@H](C)O)NC(=O)[C@](C)(Cc3ccccc3)NC(=O)[C@H]([C@@H](C)O)NC(=O)CNC(=O)[C@H](CCC(=O)O)NC(=O)[C@@H]3CCCN3C(=O)[C@H](Cc3cnc[nH]3)NC(=O)[C@H](CO)NC(=O)[C@@H]3CSSC[C@H](NC(=O)[C@H](CCCc4ccccc4)NC2=O)C(=O)NCC(=O)NCC(=O)N[C@@H](C)C(=O)N[C@@H](C)C(=O)NCC(=O)NCC(=O)NCC(=O)N[C@@H](C)C(=O)N3)cc1` (cyclo(AAGGGACSHPEGT[αMeF]TSD[Bip(2'-Et-4'-OMe)][hhPhe]CGG); disulfide 7-20) here?
Its EC50 is 2000 nM.
